# Test results as given in EP4509511A1, “SUBSTITUTED SPIRO-ISOXAZOLINYL LACTAMS, SALTS THEREOF AND THEIR USE AS HERBICIDALLY ACTIVE SUBSTANCES” (Bayer Aktiengesellschaft, priority 2023, dated 2025).
# Key:
# ECHCG [1] = assay: Herbicidal post-emergence action - Part I; type: in vivo, Echinochloa crus-galli; settings: one-leaf stage, rated visually after about 3 weeks vs untreated controls
# Method in brief: (§1)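 Greenhouse weeds grown in sandy loam were sprayed post-emergence at the one-leaf stage, 2-3 weeks after sowing. Compounds were applied as WP or EC in water with 0.5% additive at 600 L/ha, at 1280 g/ha or below. Visual damage was rated after about 3 weeks versus untreated plants (0-100%).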
# POLCO = assay: Herbicidal pre-emergence action - Part II; type: in vivo, Polygonum convolvulus; settings: 320 g/ha; Table C9
# Excerpt: (§2) Seeds of mono- and dicotyledonous weed plants and crop plants were sown, in plastic or organic planting pots, in sandy loam and covered with soil. The compounds according to the invention, formulated in the form of wettable powders (WP) or as emulsifiable concentrates (EC), were applied to the surface of the covering soil as aqueous suspension or emulsion, with the addition of 0.5% of an additive, at an application rate of 600 1 of water/ha (converted). Following treatment, the pots were placed in a greenhouse and kept under optimum growth conditions for the test plants. The visual grading of the damage to the test plants was carried out after ca. 3 weeks in comparison to untreated controls (herbicidal effect in percent (%): 100% effect = plants have died off, 0% effect = as control plants). Tables C1 to C12 below show the effects of selected compounds of the general formula (I) according to table 1 on various harmful plants and an application rate corresponding to 320 g/ha or below obtained by the experimental procedure mentioned above. Table C1: pre-emergence activity at 320g/ha against ABUTH in %
# DIGSA = assay: Herbicidal post-emergence action - Part I; type: in vivo, Digitaria sanguinalis; settings: one-leaf stage, rated visually after about 3 weeks vs untreated controls
# Experimental: (§3) Seeds of mono- and dicotyledonous weed plants were placed in plastic pots in sandy loam soil (doubly sown with in each case one species of mono- or dicotyledonous weed plants per pot), covered with soil and cultivated in a greenhouse under controlled growth conditions. 2 to 3 weeks after sowing, the test plants were treated at the one-leaf stage. The compounds of the invention, formulated in the form of wettable powders (WP) or as emulsion concentrates (EC), were applied onto the green parts of the plants as aqueous suspension or emulsion with addition of 0.5% additive at a water application rate of 600 liters per hectare (converted). After the test plants had been kept in the greenhouse under optimum growth conditions for about 3 weeks, the activity of the preparations was rated visually in comparison to untreated controls. For example, 100% activity = the plants have died, 0% activity = like control plants. Tables B1 to B12, below, show the effects of selected compounds of the general formula (I) according to table 1 on various harmful plants and an application rate corresponding to 1280 g/ha or below obtained by the experimental procedure mentioned above. Table B1a: post-emergence activity at 1280g/ha against ABUTH in %
# VIOTR [2] = assay: Herbicidal pre-emergence action - Part II; type: in vivo, Viola tricolor
# Excerpt: as §2
# ABUTH [3] = assay: Herbicidal post-emergence action - Part II; type: in vivo, Abutilon theophrasti; settings: 320 g/ha; Table E1c
# Method in brief: (§4)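 Post-emergence greenhouse test: weeds and crops in sandy loam sprayed at single-leaf stage, 2–3 weeks after sowing, with WP or EC formulations in water plus 0.5% additive at 600 l water/ha. Rates 320 g/ha or below. Visual rating after ca. 3 weeks versus untreated controls, % effect (100% = plants dead).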
# ECHCG [4] = assay: Herbicidal post-emergence action - Part II; type: in vivo, Echinochloa crus-galli; settings: 320 g/ha; Table E3b
# Excerpt: Seeds of mono- and dicotyledonous weed plants and crop plants were sown, in plastic or organic planting pots, in sandy loam, covered with soil and grown in a greenhouse under controlled growth conditions. 2 to 3 weeks after sowing, the test plants were sprayed in the single-leaf stage. The compounds according to the invention, formulated in form of wettable powders (WP) or as emulsifiable concentrates (EC), were sprayed onto the green plant parts as aqueous suspension or emulsion, with the addition of 0.5% of an additive, at an application rate of 600 1 of water/ha (converted). The test plants were placed in the greenhouse for ca. 3 weeks under optimum growth conditions, and then the effect of the preparations was assessed visually in comparison with untreated controls (herbicidal effect in percent (%): 100% effect = plants have died off, 0% effect = as control plants). Tables E1 to E10 below show the effects of selected compounds of the general formula (I) according to table 1 on various harmful plants and an application rate corresponding to 320 g/ha or below obtained by the experimental procedure mentioned above. Table E1a: post-emergence activity at 5g/ha against ABUTH in %
# SETVI = assay: Herbicidal post-emergence action - Part II; type: in vivo, Setaria viridis; settings: 320 g/ha; Table E7c
# Method in brief: as §4
# VERPE [5] = assay: Herbicidal post-emergence action - Part II; type: in vivo, Veronica persica
# Method in brief: as §4
# VERPE [6] = assay: Herbicidal post-emergence action - Part I; type: in vivo, Veronica persica; settings: one-leaf stage, rated visually after about 3 weeks vs untreated controls
# Method in brief: as §1
# MATIN = assay: Herbicidal pre-emergence action - Part II; type: in vivo, Matricaria inodora; settings: 320 g/ha; Table C8
# Excerpt: as §2
# VIOTR [7] = assay: Herbicidal post-emergence action - Part II; type: in vivo, Viola tricolor; settings: 320 g/ha; Table E9c
# Method in brief: as §4
# LOLRI = assay: Herbicidal pre-emergence action - Part I; type: in vivo, Lolium rigidum; settings: visual grading after ca. 3 weeks vs untreated controls
# Excerpt: Seeds of mono- and dicotyledonous weed plants were sown in plastic pots (double sowings with one species of mono- and one species of dicotyledonous weed plants per pot), in sandy loam, and covered with soil. The compounds according to the invention, formulated in the form of wettable powders (WP) or as emulsifiable concentrates (EC), were applied to the surface of the covering soil as aqueous suspension or emulsion, with the addition of 0.5% of an additive, at an application rate of 600 1 of water per hectare (converted). Following treatment, the pots were placed in a greenhouse and kept under optimum growth conditions for the test plants. The visual grading of the damage to the test plants was carried out after ca. 3 weeks in comparison to untreated controls (herbicidaleffectinpercent(%):100%effect=plantshavediedoff,0%effect=ascontrolplants). [formula]
# Tables A1 to A12, below, show the effects of selected compounds of the general formula (I) according to table 1 on various harmful plants and an application rate corresponding to 1280 g/ha or below obtained by the experimental procedure mentioned above. Table A1: pre-emergence activity at 1280g/ha against ABUTH in %
# VERPE [8] = assay: Herbicidal pre-emergence action - Part II; type: in vivo, Veronica persica
# Excerpt: as §2
# ALOMY = assay: Herbicidal post-emergence action - Part I; type: in vivo, Alopecurus myosuroides; settings: one-leaf stage, rated visually after about 3 weeks vs untreated controls
# Experimental: as §3
# ABUTH [9] = assay: Herbicidal post-emergence action - Part I; type: in vivo, Abutilon theophrasti; settings: 1280 g/ha, one-leaf stage, rated visually after about 3 weeks vs untreated controls
# Method in brief: as §1
# AVEFA = assay: Herbicidal pre-emergence action - Part II; type: in vivo, Avena fatua; settings: 320 g/ha; Table C4
# Excerpt: as §2
# ABUTH [10] = assay: Herbicidal pre-emergence action - Part II; type: in vivo, Abutilon theophrasti; settings: visual grading after ca. 3 weeks vs untreated controls
# Excerpt: as §2
smiles,measurement,setting,value
Cc1ccsc1C1=NOC2(CCCN(Cc3c(F)cccc3F)C2=O)C1 (racemic) [Compound I-2],post-emergence activity at 320g/ha against ECHCG in %,ECHCG [1]; 320 g/ha,90%
same,post-emergence activity at 1280g/ha against ECHCG in %,ECHCG [1]; 1280 g/ha,90%
same,pre-emergence activity against POLCO,POLCO,80%
same,post-emergence activity at 320g/ha against DIGSA in %,DIGSA; 320 g/ha,90%
same,post-emergence activity at 1280g/ha against DIGSA in %,DIGSA; 1280 g/ha,90%
same,pre-emergence activity against VIOTR,"VIOTR [2]; 80 g/ha, Table C12b",90%
same,pre-emergence activity against VIOTR,"VIOTR [2]; 320 g/ha, Table C12a",90%
same,post-emergence activity against ABUTH,ABUTH [3],80%
same,post-emergence activity against ECHCG,ECHCG [4],90%
same,post-emergence activity against SETVI,SETVI,90%
same,post-emergence activity against VERPE,"VERPE [5]; 80 g/ha, Table E8c",90%
same,post-emergence activity against VERPE,"VERPE [5]; 320 g/ha, Table E8d",90%
same,post-emergence activity at 320g/ha against VERPE in %,VERPE [6]; 320 g/ha,90%
same,post-emergence activity at 1280g/ha against VERPE in %,VERPE [6]; 1280 g/ha,90%
same,pre-emergence activity against MATIN,MATIN,90%
same,post-emergence activity against VIOTR,VIOTR [7],80%
same,pre-emergence activity at 320g/ha against LOLRI in %,LOLRI; 320 g/ha,100%
same,pre-emergence activity at 1280g/ha against LOLRI in %,LOLRI; 1280 g/ha,100%
same,pre-emergence activity against VERPE,"VERPE [8]; 80 g/ha, Table C11b",90%
same,pre-emergence activity against VERPE,"VERPE [8]; 320 g/ha, Table C11a",90%
same,post-emergence activity at 1280g/ha against ALOMY in %,ALOMY,90%
same,post-emergence activity at 1280g/ha against ABUTH in %,ABUTH [9],90%
same,pre-emergence activity against AVEFA,AVEFA,80%
same,pre-emergence activity at 320g/ha against ABUTH in %,ABUTH [10],80%
